For one series, the system named is α-SMA in MRC5 cells. Nature of the series: inhibition of α-SMA formation in TGF-β1-treated MRC5 cells (confocal imaging). Type of series: cell-based, human. Particulars: TGF-β1 5 ng/mL, 70 hours; for intracellular α-SMA formation: MRC5, compound 10 μM, FIGS. 2A, 2B. On the procedure: (§1) It is known that when the process of pulmonary fibrosis results in structural changes in cells, the level of F-actin increases. Therefore, to confirm the therapeutic efficacy of the compounds of the present invention for pulmonary fibrosis-related diseases, the structural changes of cells after treating fibrosis-induced MRC5 with the compounds of the present invention were measured by the degree of inhibition of F-actin and α-SMA formation.
(§2) Specifically, MRC5 cells were treated with Compound 32 (10 μM) or Compound 42 (10 μM) according to the present invention, CK-666 (actin polymerization inhibitor, 10 μM), nintedanib (1 μM), or DMSO, which had been dissolved in a 0.5% fetal bovine serum (FBS)-containing medium, and 2 hours later, the cells were treated with TGF-β1 (5 ng/mL) to cause fibrosis. Due to strong cytotoxicity of the drug of nintedanib, all cells die when treated with nintedanib at the same concentration (10 μM) as that of the compound of the present invention, so it is impossible to conduct a comparative experiment. Therefore, the effect was confirmed by treating the cells with 1 μM nintedanib. 70 hours later, the cells were fixed with a 2% paraformaldehyde solution for 10 minutes, treated with a 0.1% Triton X-100 solution for 10 minutes to provide cell membrane permeability, and treated with a 1% bovine serum albumin (BSA) solution to prevent non-specific binding. […] High-resolution F-actin images acquired with a STELLARIS 5 confocal microscope (Leica) were quantitatively represented by standardizing F-actin stained with rhodamine phalloidin using Alexa Fluor™ Plus 488-labeled GAPDH using self-developed analysis software through programming. […] High-resolution α-SMA images acquired with a STELLARIS 5 confocal microscope (Leica) were quantitatively represented by standardizing α-SMA stained with an anti-α-SMA-FITC antibody with Alexa Fluor™ Plus 488-labeled GAPDH using self-developed analysis software through programming.

Another series relates to F-actin in MRC5 cells. Nature of the series: inhibition of F-actin formation in TGF-β1-treated MRC5 cells (confocal imaging). Type of series: cell-based, human. Particulars: TGF-β1 5 ng/mL, 70 hours; for intracellular F-actin formation: MRC5, compound 10 μM, FIGS. 2C, 2D. On the procedure:
as §1, §2

Series [1] has as its system α-SMA expression in MRC5 cells. Nature of the series: inhibition of α-SMA expression in MRC5 cells, image screening method. Particulars: Homo sapiens; MRC5, compound 10 μM, TGF-β1 5 ng/mL, 72 hours, relative to TGF-β1 alone; read-out: Inhibitory activity (α-SMA expression inhibition). Type of series: cell-based. The method, boiled down:
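MRC5 cells exposed to compound (10 μM) or DMSO with TGF-β1 (5 ng/mL) for 72 h, then fixed, permeabilised, blocked and immunostained for α-SMA (FITC) and GAPDH. Image-based quantitation; α-SMA level with compound plus TGF-β1 expressed relative to TGF-β1 alone.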

Series [2] concerns IL-6 secretion by M1 macrophages derived from THP-1. Description: IL-6 secretion by LPS-activated THP-1-derived M1 macrophages (cytometric bead array). Type of series: cell-based, human. Particulars: LPS 10 ng/mL 6 hours, compound 1 μM or 10 μM, FIG. 3. On the procedure:
IL-6 is one of the pro-inflammatory cytokines secreted by activated macrophages, M1 macrophages, and is a potent trigger of fibrosis. Therefore, to evaluate the inhibitory activity of the compounds according to the present invention to inhibit pulmonary fibrosis through the inhibition of inflammatory effects, the extent of IL-6 secretion by macrophages after treatment of activated macrophages with the compounds was compared.
First, macrophages were prepared through the following process: 1 mL of a medium containing 5×10^5 cells/mL of THP-1 cells (Korean Cell Line Bank; KCLB NO. 40202) grown in a complete medium (a medium in which Roswell Park Memorial Institute [RPMI] is supplemented with 10% [vol/vol] fetal bovine serum [FBS] and 1% [vol/vol] penicillin/streptomycin [P/S]) was dispensed by 1 mL into each well of a 12-well plate. […]
Subsequently, the measurement of a cytokine level was performed through the following process: the secured complete medium was centrifuged at 13,000 RPM for 10 minutes in a 4° C. centrifuge, and then a supernatant was transferred to a new 1.5 mL microcentrifuge tube. […] The amount of IL-6 binding to the beads was measured using a Novocyte 3000 flow cytometer (Agilent).

For series [3] the following is noted: cited from earlier work.
In another series the test system is MRC5 cells. Description: cytotoxicity in MRC5 cells. Type of series: cell-based, human. Particulars: 10 μM.
The subject of series [4] is α-SMA expression in MRC5 cells. Particulars: stated as known; cited from earlier work.

The structures appear in SMILES notation. A value given as a limit tells only on which side of the number the result lay.

A word on the inhibition: it is the change of the read-out against control, counted positive when it falls. For the compound `CC(C)CN1CCC(NC(=O)N2CCN(c3ccc(F)cc3)c3cc(F)ccc32)CC1` [Compound 32, 6-fluoro-4-(4-fluorophenyl)-N-(1-isobutylpiperidin-4-yl)-3,4-dihydroquinoxaline-1(2H)-carboxamide], the “intracellular α-SMA formation” value with α-SMA in MRC5 cells is recorded as “decreased to a level similar to that in the group not treated with TGF-β1”. For the same compound, in the series with F-actin in MRC5 cells, the “intracellular F-actin formation” value is recorded as “decreased to a level similar to that in the group not treated with TGF-β1”. Moreover, the inhibition at 10 µM in series [1] is at least 70%. For the same compound, the IL-6 production entry in series [2] is “decrease”.
In the case of `COC(=O)c1ccc2c(c1)NC(=O)/C2=C(\Nc1ccc(N(C)C(=O)CN2CCN(C)CC2)cc1)c1ccccc1` [nintedanib], in series [3] (IPF treatment, stated as known), the therapeutic effect is reported as 10%. The lung function improvement entry in series [3] (clinical use as therapeutic drug for pulmonary fibrosis) is “about 10%”. Further, the “effect of inhibiting α-SMA formation” value with α-SMA in MRC5 cells (MRC5, nintedanib 1 μM) is “lower than Compounds 32 and 42”. Besides, the cytotoxicity result in the series on MRC5 cells is given as “all cells die”. For the same compound, the F-actin formation entry in the series on F-actin in MRC5 cells (MRC5, nintedanib 1 μM) is “did not inhibit”. In series [4], the α-SMA inhibitory activity is 0%.
Turning to `CC(C)N1CC(NC(=O)N2CCN(c3ccc(F)cc3)c3cc(F)ccc32)C1` [Compound 42, 6-fluoro-4-(4-fluorophenyl)-N-(1-isopropylazetidin-3-yl)-3,4-dihydroquinoxaline-1(2H)-carboxamide], the “intracellular α-SMA formation” value in the series on α-SMA in MRC5 cells is given as “decreased to a level similar to that in the group not treated with TGF-β1”. Moreover, the “intracellular F-actin formation” value in the series on F-actin in MRC5 cells is on record as “decreased to a level similar to that in the group not treated with TGF-β1”. Besides, the inhibition at 10 µM in series [1] fell in the range of 50 to 70%. In series [2], the IL-6 production result was “decrease”.

The values above are taken from US20260265189A1, “NOVEL COMPOUND, AND PHARMACEUTICAL COMPOSITION COMPRISING SAME AS ACTIVE INGREDIENT” (SAPIENSBIO INC., priority 2022, published 2026).
